Test system: KINGS1 and F3 cells
Experiment: PARP cleavage (apoptosis) by western blot
Type: cell-based
Settings: KINGS1 and F3, 5 μM
Source text: Super-enhancers consist of enhancer clusters with abundant binding of transcription factors and are highly enriched with H3K27ac marks. The H3K4me2 increased regions included the MYC locus and H3K4me2 de novo regions comprised Nestin and SOX2 loci (Fig. 2F, Supplementary Fig. S5A). These regions were also identified as super-enhancers in GSCs using data from our previous study (Fig. 2F). Compared to the large increase in H3K4me2 in these regions, changes in H3K4me3 were subtle after S2172 treatment (only 2582 regions were acquired modification) (Fig. 2C). Increasing the me2/me3 ratio at H3K4 is associated with reduced gene expression.
Supplementary Figure. S3 Shinjo K. et al […]
B. Western blot analysis of LSD1,MYC, Nestin, SOX2,and ACTB in same cells as shown in panel A. ACTB was used as a loading control. […] Quantification of signal intensities of the Western blot (right panel). […] Right panel: Quantification of band signal intensities from the Western blot. […] The ratio was calculated by dividing the cleaved PARP band intensity by the full-length PARP band intensity. […]
A. Left panel: Western blot analysis of H3K4me1, H3K4me2, H3K4me3, and H3K9me2 after treatment with either DMSO or S2172 5μM for 96 h in normal neural stem cell F3 . […] Right panel: Quantification of signal intensities of the Western blot. […]
C. […] Right panel: Quantification of band signal intensities from the Western blot. […]

NC1CCC(NC2CC2c2cc(F)cc(F)c2OCc2ccccc2)CC1 (stereo not shown) [S2172]
cleaved-PARP levels: not significantly increased
